Test [1] addresses T1, A1 adenosine receptor (Mesocricetus auratus, UniProt A0A1U8BVR4).
T1 construct: endogenous in cells; host or cells: DDT1 (DDT1 MF-2) hamster vas deferens smooth muscle cells
T1 sequence (A0A1U8BVR4 1-326): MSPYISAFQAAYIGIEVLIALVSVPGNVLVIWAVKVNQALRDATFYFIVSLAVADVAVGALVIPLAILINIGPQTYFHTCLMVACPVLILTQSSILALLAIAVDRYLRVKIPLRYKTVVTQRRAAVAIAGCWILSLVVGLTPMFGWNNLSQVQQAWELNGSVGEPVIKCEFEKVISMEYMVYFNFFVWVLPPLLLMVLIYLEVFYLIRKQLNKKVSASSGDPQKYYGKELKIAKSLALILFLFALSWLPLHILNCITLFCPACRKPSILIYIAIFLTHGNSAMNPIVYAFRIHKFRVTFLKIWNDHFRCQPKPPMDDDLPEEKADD
Nature of the test: [35S]GTPγS binding assay, A1-agonist stimulated. The class given is biochemical, hamster. As to conditions: agonist stimulated [35S]GTPγS binding, CPA = 100%. Here is the method: (§1) Attached cells were washed twice with HBSS (2×10 ml), scraped free of the plate with the aid of a rubber policeman in 5 ml of 50 mM Tris-HCI buffer pH 7.4 at 4° C. and the suspension homogenized for 10 s. The suspension was then centrifuged at 27,000×g for 10 min. The pellet was resuspended in homogenization buffer by vortexing and centrifuged as described above. The final pellet was resuspended in 1 vol of 50 mM Tris-HCI buffer pH 7.4 containing 5 mM MgCl2 for A1 AdoR assays. For the [^35S]GTPγS binding assay the final pellet was resuspended in 50 mM Tris-HCI pH 7.4 containing 5 mM MgCl2, 100 mM NaCl and 1 mM dithiothreitol. This membrane suspension was then placed in liquid nitrogen for 10 min, thawed and used for assays. The protein content was determined by the method of Bradford (1976) using bovine serum albumin as standard.
A1-agonist stimulated [^35S]GTPγS binding was determined by a modification of the method described by Giersckik et al. (1991) and Lorenzen et al. (1993). […] Nonspecific binding was determined by the addition of 10 μM GTPγS. […] Previous reports have shown that agonist stimulated [^35S]GTPγS binding was dependent on the presence of GDP (Gierschik et al., 1991; Lorenzen et al., 1993; Traynor & Nahorski, 1995). […] In saturation experiments, 0.5 nM [^35S]GTPγS was incubated with 0.5-1000 nM GTPγS. At the end of the incubation, each suspension was filtered and the retained radioactivity determined as described above.
For orientation: GTPγS resists hydrolysis and so accumulates on activated G proteins.

Test [2] addresses T1, A1 adenosine receptor. Briefly: cAMP assay (SPA) in DDT1 cells, forskolin-induced cAMP. It counts as cell-based, hamster. As to conditions: normalized to full agonist CPA, 5 μM forskolin, 50 μM rolipram; for Emax: 10 min. Here is the method:
A scintillation proximity assay (SPA) using rabbit antibodies directed at cAMP using an added tracer of adenosine 3′,5′-cyclic phosphoric acid 2′-O-succinyl-3-[^125I]iodotyrosine methyl ester and fluoromicrospheres containing anti-rabbit specific antibodies as described by Amersham Pharmacia Biotech (Biotrak cellular communication assays). Briefly, DDT1 cells were cultured in clear bottomed 96 well microtiter plates with opaque wells at concentrations between 10^4 to 10^6 cells per well in 40 μl of HBSS at 37° C. (5% CO2 and 95% humidity). The partial or full A1 agonists (5 μl) of this invention were incubated at various concentrations with the DDT1 cells in the presence of rolipram (50 μM), and 5 μM forskolin for 10 min at 37° C. The cells were immediately lysed by treatment 5 μl of 10% dodecyltrirnethylammonium bromide followed by shaking using rnicroplate shaker. After incubation of the plate for 5 minutes, an imnuunoreagent solution (150 μl containing equal volumes of tracer, antiserum, and SPA fluorospheres) was added to each well followed by sealing the plate. After 15-20 h at 23° C., the amount of bound [^125] cAM to the fluoromicrospheres was determined by counting in a microtitre plate scintillation counter for 2 minutes. Comparison of counts with standard curves generated for cAMP using a similar protocol afforded the cAMP present after cell lysis.
For orientation: Changes in cAMP serve as a functional read-out for many G protein-coupled receptors.

A further test deals with T2, A1 receptor (Mesocricetus auratus, UniProt A0A1U8BVR4).
T2 construct: endogenous in cells; host or cells: DDT1 (DDT1 MF-2) hamster vas deferens smooth muscle cells
T2 sequence (A0A1U8BVR4 1-326): T1 sequence (A0A1U8BVR4 1-326)
Briefly: Competitive binding assay, DDT1 cell membranes, [3H]CCPA. Details: species or system hamster. Conditions: [3H]CCPA 2 nM. The procedure: Cells were subcultured twice weekly by dispersion in Hank's Balanced Salt Solution (HBSS) without the divalent cations and containing 1 mM EDTA. The cells were then seeded in growth medium at a density of 1.2×10^5 cells per plate and experiments were performed 4 days later at approximately one day preconfluence.
as §1, with “assays.” for “assays. The protein content was determined by the method of Bradford (1976) using bovine serum albumin as standard.”
Competitive Binding Assay Pig striatum were prepared by homogenation in 50 mM Tris buffer (5× volume of tissue mass pH=7.4). After centrifilgation at 19,000 rpm for 25 minutes at 4° C., the supernatant was discarded, and the process was repeated twice. Compositions of this invention were assayed to determine their affinity for the A1 receptor in a pig striatum membrane prep or a DDT, membrane prep. Briefly, 0.2 mg of pig striatal membranes or DDT, cell membranes were treated with adenosine deaminase and 50 mM Tris buffer (pH=7.4) followed by mixing. To the pig membranes was added 2 μL of serially diluted DMSO stock solution of the compounds of this invention at concentrations ranging from 100 microM to 10 nM. The control received 2 microL of DMSO alone, then the antagonist [^3H] 8-cyclopentylxanthine (CPX) for pig striatum or the agonist [^3H] 2-chloro-6-cyclopentyladenosine (CCPA) for DDT, membranes in Tris buffer (50 mnM, pH of 7.4) was added to achieve a final concentration of 2 nM. After incubation at 23 C for 2 h, the solutions were filtered using a membrane harvester using multiple washing of the membranes (3×). The filter disks were counted in scintillation cocktail affording the amount of displacement of triated CPX or by the competitive binding compositions of this invention. In the case of the DDT1 cell membranes, some of the determinations of binding affinity (Ki) were made in the presence of Gpp(NH)p as noted in Table 1 (note: Gpp(NH)p shifts the receptor to a low affinity form). Greater than a 5 point curve was used to generate Ki's and the number of experiments is indicated in the column marked in Table 1 below.

Setting [3] is: in presence of Gpp(NH)p (low affinity form), read-out: Ki - DDT1 cell membrane In presence of Gpp (NH)p.
The mark [4] stands for this setting: DDT1 cell membranes, read-out: Ki-DDT1 cell membrane.

Structures are written as SMILES. Read-outs that look alike come from different tables or passages of the source.

Take `COC(=O)NCC1OC(n2cnc3c(N[C@@H]4CCOC4)ncnc32)C(O)C1O` (some centres unmarked) [Compound 18]: the Emax at A1 adenosine receptor [1] was 77%; at A1 adenosine receptor [2], 86%.

At A1 adenosine receptor [1], `O=C(NC1CCCC1OCc1ccccc1)OCC1OC(n2cnc3c(N[C@@H]4CCOC4)ncnc32)C(O)C1O` (some centres unmarked) [Compound 38] came in with a GTPγS of 1%. Moreover, the cAMP at A1 adenosine receptor [2] is −25%.

Consider `O=C(NC1CC1c1ccccc1)OC[C@H]1O[C@@H](n2cnc3c(N[C@@H]4CCOC4)ncnc32)[C@H](O)[C@@H]1O` (stereo partly drawn) [Compound 40, [(5-{6-[((3R)oxolan-3-yl)amino}purin-9-yl}(3S,2R,4R,5R)-3,4-dihydroxyoxolan-2-yl)methoxy]-N-(2-phenylcyclopropyl)carboxamide], for which the Emax on A1 adenosine receptor [1] is -6%; on A1 adenosine receptor [2] it was -14%.

Compound `O[C@@H]1[C@H](O)[C@@H](COC(=S)N2CCCC2)O[C@H]1n1cnc2c(N[C@@H]3CCOC3)ncnc21` [Compound 52] registered a GTPγS on A1 adenosine receptor [1] of 77%. For the same compound, on A1 receptor (setting [3]), the Ki came out at 1120 nM.

Consider `CN(C)C(=S)OC[C@H]1O[C@@H](n2cnc3c(N[C@@H]4CCOC4)ncnc32)[C@H](O)[C@@H]1O` [Compound 53, 2-{6-[((3R)oxolan-3-yl)amino]purin-9-yl}(4S,2R,3R,5R)-5-{[(dimethylamino)thioxomethoxy]methyl}oxolane-3,4-diol], for which the Emax at A1 adenosine receptor [1] amounted to 85%. For the same compound, the Ki came out at 245 nM on A1 receptor (setting [4]) and 2110 nM at A1 receptor (setting [3]).

Turning to `OC1C(COC(=S)NCc2ccccc2)OC(n2cnc3c(N[C@@H]4CCOC4)ncnc32)C1O` (some centres unmarked) [Compound 54], the Emax at A1 adenosine receptor [1] was 93%. Also, the Ki on A1 receptor (setting [3]) amounted to 229 nM.

For the compound `OC1C(COC(=S)NC2CCCCC2)OC(n2cnc3c(N[C@@H]4CCOC4)ncnc32)C1O` (some centres unmarked) [Compound 55], the Emax on A1 adenosine receptor [1] turned out to be 82%. The Ki at A1 receptor (setting [4]) amounted to 252 nM; at A1 receptor (setting [3]) it was 962 nM.

Take `OC1C(COC(=S)NC2CCCC2OCc2ccccc2)OC(n2cnc3c(N[C@@H]4CCOC4)ncnc32)C1O` (some centres unmarked) [Compound 57]: the Emax at A1 adenosine receptor [1] amounted to 67%. Also, the cAMP on A1 adenosine receptor [2] came to 73%.

As to `OC1C(COC(=S)NC2CCC2)OC(n2cnc3c(N[C@@H]4CCOC4)ncnc32)C1O` (stereo partly drawn) [Compound 58, 2-{1[((3)oxolan-3-yl)amino]purin-9-yl}(4S,2R,3R,5R)-5-{[(cyclobutylamino)thioxomethoxy]methyl}oxolane-3,4-diol], the Emax on A1 adenosine receptor [1] worked out at 79%; on A1 adenosine receptor [2] it was 78%.

As to `OC1C(COC(=S)NC2CC2)OC(n2cnc3c(N[C@@H]4CCOC4)ncnc32)C1O` (some centres unmarked) [Compound 59], the results for the Emax on A1 adenosine receptor [1] and at A1 adenosine receptor [2] were 82% and 115%, respectively.

For `C=CCNC(=S)OCC1OC(n2cnc3c(N[C@@H]4CCOC4)ncnc32)C(O)C1O` (stereo partly drawn) [Compound 60, 2-{6-[((3R)oxolan-3-yl)amino]purin-9-yl}(4S,2R,3R,5R)-5-{[(prop-2-enylaminio)thioxomethoxy]methyl}oxolane3,4diol], on A1 adenosine receptor [1], the Emax was 77%. In addition, the Ki at A1 receptor (setting [3]) is 239 nM.

As to `OC1CCCC1NC(=S)OCC1OC(n2cnc3c(N[C@@H]4CCOC4)ncnc32)C(O)C1O` (some centres unmarked) [Compound 63], the Emax on A1 adenosine receptor [1] is 100%; at A1 adenosine receptor [2], 115%.

In turn, `OC1CCCC1NC(=S)OCC1OC(n2cnc3c(N[C@@H]4CCOC4)ncnc32)C(O)C1O` (some centres unmarked) [Compound 64] showed a GTPγS at A1 adenosine receptor [1] of 99%. On A1 adenosine receptor [2], the cAMP is 110%.

On to `O=C(NC1CCCC1C(=O)O)OCC1OC(n2cnc3c(N[C@@H]4CCOC4)ncnc32)C(O)C1O` (some centres unmarked) [Compound 65], for which the Emax on A1 adenosine receptor [1] came to 81%; at A1 adenosine receptor [2], 95%.

Regarding `O=C(O)CCNC(=O)OCC1OC(n2cnc3c(N[C@@H]4CCOC4)ncnc32)C(O)C1O` (some centres unmarked) [Compound 67], on A1 adenosine receptor [1], the Emax was 59%. Further, the Ki on A1 receptor (setting [4]) is 2220 nM.

Take `O=C(NCC1OC(n2cnc3c(N[C@@H]4CCOC4)ncnc32)C(O)C1O)OC1CCCC1` (some centres unmarked) [Compound 70]: the Emax on A1 adenosine receptor [1] worked out at 76%; on A1 adenosine receptor [2], 79%.

As for `COC(=S)NCC1OC(n2cnc3c(N[C@@H]4CCOC4)ncnc32)C(O)C1O` (some centres unmarked) [Compound 71], the Emax at A1 adenosine receptor [1] was found to be 98%; on A1 adenosine receptor [2] it was 94%.

In the case of `O=C(NC1CCCC1)SCC1OC(n2cnc3c(NC4CCOC4)ncnc32)C(O)C1O` [Compound 73, [(5-{6-[((3R)oxolan-3-yl)amino]purin-9-yl}(2S,3S,4R,5R)3,4-dihydroxyoxolan-2-yl)methythio]-N-cyclopentylcarboxamide], the Emax at A1 adenosine receptor [1] came to 109%. Moreover, the Ki at A1 receptor (setting [4]) worked out at 183 nM.

Regarding `O[C@@H]1[C@H](O)[C@@H](CSC(=S)NC2CCCC2)O[C@H]1n1cnc2c(N[C@@H]3CCOC3)ncnc21` [Compound 75, 2-{6-[((3R)oxolan-3-yl)amino]purin-9-yl}(4S,5S,2R,3R)-5-{[(cyclopentylamino)thioxomethylthio]methyl}oxolane-3,4-diol], at A1 adenosine receptor [1], the Emax worked out at 91%. In addition, the Ki at A1 receptor (setting [4]) came to 62 nM.

For `CNC(=S)NC[C@H]1O[C@@H](n2cnc3c(N[C@@H]4CCOC4)ncnc32)[C@H](O)[C@@H]1O` [Compound 77, 2-{6[((3R)oxolan-3-yl)amino]purin-9-yl}(4S,2R,3R,5R)5-({[(methylamino)thioxomethyl]amino}methyl)oxolane-3,4diol], the Emax at A1 adenosine receptor [1] was found to be 101%. Besides, the Ki at A1 receptor (setting [4]) is 113 nM.

Regarding `OC1C(CNC(=S)NC2CCCC2)OC(n2cnc3c(NC4CCOC4)ncnc32)C1O` [Compound 78, 2-{6-[((3R)oxolan-3-yl)amino]purin-9-yl}(4S,2R,3R,5R)-5-({[(cyclopentylamnino)thioxomethyl]amino}methyl)oxolane3,4diol], the Emax at A1 adenosine receptor [1] is 95%. At A1 receptor (setting [4]), the Ki stood at 357 nM.

As usually defined, the Emax is the maximal effect, on the per cent scale that the assay sets. What is called Ki is the equilibrium dissociation constant of an inhibitor or competing ligand from its target.
